Numbers after ± are expanded uncertainties.

For data set [1] the following is noted: Crystal; DTA.
Data set [2] in a line: Molar enthalpy of transition or fusion. The note with it: Crystal; DSC.

Regarding `O=Cc1cccc([N+](=O)[O-])c1` [3-nitrobenzaldehyde], the Normal melting temperature in data set [1] stood at 55.07 ± 1.1 °C. In data set [2], the “Molar enthalpy of transition or fusion” value worked out at 4.76 ± 0.217 kcal/mol.
